Literature values as cited in patent US20210181182A1, “METHOD FOR IDENTIFICATION OF PERTURBAGENS OF PARTICULAR BIOLOGICAL PROCESSES AND CELL SYSTEMS WITHIN LIVING CELLS” (priority 2018, published 2021).
Where a name gives a salt, the structure may show the parent alone. Read-outs that look alike come from different tables or passages of the source. Marks after values point to notes of the source that are not given here.

System: mitochondria membrane potential
Conditions: cited from earlier work
[1] = HepG2, 1-hour incubation at concentrations below 60 μM

Row | SMILES | MMP assay hitCall [1] | MMP assay hitCall
1 | C[C@@]1(c2ccc(Oc3ccccc3)cc2)OC(=O)N(Nc2ccccc2)C1=O (racemic) [Famoxadone] | 1 | 
2 | COC(C=C(C)CCC=C(C)C)OC [1,1-Dimethoxy-3,7-dimethylocta-2,6-diene] | 0 | 
3 | CCC(=O)C=Cc1ccc(OC)cc1 [1-(4-Methoxyphenyl)-1-pentene-3-one] | 0 | 
4 | Fc1cccc(Cl)c1CCl [1-Chloro-2-(chloromethyl)-3-fluorobenzene] | 0 | 
5 | CC(C)(C)C(=O)CCl [1-Chloro-3,3-dimethyl-butan-2-one] | 0 | 
6 | CCCCCCCCCCCCN1CCCC1=O [1-Dodecyl-2-pyrrolidinone] | 0 | 
7 | C=CC(O)CCCCC (centres unmarked) [1-Octen-3-ol] | 0 | 
8 | c1cc(C(c2ccc(OCC3CO3)cc2)c2ccc(OCC3CO3)cc2)ccc1OCC1CO1 (centres unmarked) [2,2′,2″-[Methanetriyltris(benzene-4,1-diyloxymethanediyl)]trioxirane] | 0 | 
9 | Oc1c(Br)cc(Br)cc1Br [2,4,6-Tribromophenol] | 1 | 
10 | CC=CC=CCOC(=O)C(C)C [2,4-Hexadienyl isobutyrate] | 0 | 
11 | CCC(C)(C)c1cc(O)c(C(C)(C)CC)cc1O [2,5-Bis(2-methylbutan-2-yl)benzene-1,4-diol] | 1 | 
12 | CC(C)(C)c1cc(O)c(C(C)(C)C)cc1O [2,5-Di-tert-butylbenzene-1,4-diol] | 1 | 
13 | CC(C)(C)c1cc([N+](=O)[O-])cc(C(C)(C)C)c1O [2,6-Di-tert-butyl-4-nitrophenol] | 1 | 
14 | C=CC(=O)OCCOCCOCC [2-(2-Ethoxyethoxy)ethyl prop-2-enoate] | 0 | 
15 | Cl.ClCc1ccccn1 [2-(Chloromethyl)pyridine hydrochloride] | 0 | 
16 | Oc1ccc(-c2ccccc2)cc1Cl [2-Chloro-4-phenylphenol] | 1 | 
17 | O=C(CCl)Nc1ccccc1 [2-Chloro-N-phenylacetamide] | 0 | 
18 | O=C(CCl)c1ccccc1 [2-Chloroacetophenone] | 0* | 
19 | C=CC(=O)OCCC#N [2-Cyanoethyl prop-2-enoate] | 0 | 
20 | C=CC(=O)OCCO [2-Hydroxyethyl acrylate] | 0* | 
21 | COc1cc(C)ccc1O [2-Methoxy-4-methylphenol] | 0 | 
22 | COc1ccc(O)c(C(C)(C)C)c1 [2-tert-Butyl-4-methoxyphenol] | 1 | 
23 | Nc1ccc(-c2ccc(N)c(N)c2)cc1N [3,3′-Diaminobenzidine] |  | 1

Row | SMILES | MMP assay hitCall [1] | MMP assay hitCall
24 | N#Cc1nc(Cl)c(Cl)c(Cl)c1Cl [3,4,5,6-Tetrachloro-2-pyridinecarbonitrile] | 1 | 
25 | CC(C)=CCCC(C)=CC=O [3,7-Dimethyl-2,6-octadienal] | 0 | 
26 | Cl.ClCc1cccnc1 [3-(Chloromethyl)pyridine hydrochloride] | 0 | 
27 | Oc1ccc2c(c1)-c1ccccc1C2 [3-Hydroxyfluorene] | 1 | 
28 | CC(C)CC(C)(c1ccc(O)cc1)c1ccc(O)cc1 [4,4′-(4-Methylpentane-2,2-diyl)diphenol] | 1 | 
29 | Nc1ccc(N=Nc2ccccc2)cc1 [4-Aminoazobenzene] |  | 0
30 | Cl.Nc1ccc(-c2ccccc2)cc1 [4-Biphenylamine hydrochloride] | 0 | 
31 | C=Cc1ccc(OC(C)=O)cc1 [4-Ethenylphenyl acetate] | 0 | 
32 | CCCCCCc1ccc(O)cc1O [4-Hexylresorcinol] | 1 | 
33 | CCCCCCCCCc1ccc(O)cc1 [4-Nonylphenol] | 1 | 
34 | CCCc1ccc(O)cc1 [4-Propylphenol] | 1 | 
35 | CCN(CC)c1ccc2c(C)cc(=O)oc2c1 [7-Diethylamino-4-methylcoumarin] |  | 1
36 | Oc1cccc2cccnc12 [8-Hydroxyquinoline] |  | 0
37 | CCc1cccc(CC)c1N(COC)C(=O)CCl [Alachlor] | 0* | 
38 | C=CCC1=C(C)C(OC(=O)C2C(C=C(C)C)C2(C)C)CC1=O (centres unmarked) [Allethrin] | 1 | 
39 | Clc1nc(Cl)nc(Nc2ccccc2Cl)n1 [Anilazine] | 0 | 
40 | CNC(=O)Oc1cccc2c1OC(C)(C)O2 [Bendiocarb] | 0 | 
41 | CCCCN(CC)c1c([N+](=O)[O-])cc(C(F)(F)F)cc1[N+](=O)[O-] [Benfluralin] | 0 | 
42 | CC1COc2ccccc2N1C(=O)C(Cl)Cl (centres unmarked) [Benoxacor] | 0 | 
43 | CCCCCCCCCCCC[N+](C)(C)Cc1ccccc1.[Cl-] [Benzyldimethyldodecylammonium chloride] | 1 | 
44 | O=c1[nH]c2ccc([S+]([O-])CCN3CCC(Cc4ccc(F)cc4)CC3)cc2o1 (centres unmarked) [Besonprodil] | 0 | 
45 | COc1ccc(-c2ccccc2)cc1NNC(=O)OC(C)C [Bifenazate] | 1 | 
46 | CCC(C)c1cc([N+](=O)[O-])cc([N+](=O)[O-])c1OC(=O)C=C(C)C (centres unmarked) [Binapacryl] | 1 | 

Row | SMILES | MMP assay hitCall [1] | MMP assay hitCall
47 | c1cc(OCC2CO2)ccc1Cc1ccc(OCC2CO2)cc1 (centres unmarked) [Bis[4-(glycidyloxy)phenyl]methane] | 0 | 
48 | Oc1ccc(C(c2ccc(O)cc2)(C(F)(F)F)C(F)(F)F)cc1 [Bisphenol AF] |  | 1
49 | CC(C)(c1ccc(O)cc1)c1ccc(O)cc1 [Bisphenol A] | 1 | 
50 | Oc1c(Cl)cc(Cl)cc1Sc1cc(Cl)cc(Cl)c1O [Bithionol, reference compound] | 1 | 
51 | N#Cc1cc(Br)c(O)c(Br)c1 [Bromoxynil] | 1 | 
52 | CCC(C)Nc1c([N+](=O)[O-])cc(C(C)(C)C)cc1[N+](=O)[O-] (centres unmarked) [Butralin] | 0 | 
53 | CCOP(=S)(OCC)OC(Cl)C(Cl)(Cl)Cl (centres unmarked) [Chlorethoxyfos] | 1 | 
54 | CCOCn1c(-c2ccc(Cl)cc2)c(C#N)c(Br)c1C(F)(F)F [Chlorfenapyr] | 1 | 
55 | Oc1ccc(Cl)cc1Cc1ccccc1 [Clorophene] | 1 | 
56 | Cc1ccc(-c2c(Cl)nc(C#N)n2S(=O)(=O)N(C)C)cc1 [Cyazofamid] | 1 | 
57 | Cc1cc(C2CC2)nc(Nc2ccccc2)n1 [Cyprodinil] | 0 | 
58 | CC(=O)O[C@]1(C(C)=O)CC[C@H]2[C@@H]3C=C(Cl)C4=CC(=O)[C@@H]5C[C@@H]5[C@]4(C)[C@H]3CC[C@@]21C [Cyproterone acetate, reference compound] | 1 | 
59 | CN(C)NC(=O)CCC(=O)O [Daminozide] |  | 0
60 | CN1CSC(=S)N(C)C1 [Dazomet] | 0 | 
61 | CCOC(=O)Nc1cccc(OC(=O)Nc2ccccc2)c1 [Desmedipham] | 1 | 
62 | CCCCOC(=O)c1ccccc1C(=O)OCCCC [Dibutyl phthalate] | 0* | 
63 | COP(=O)(OC)OC=C(Cl)Cl [Dichlorvos] | 0* | 
64 | O=C(OC1CCCCC1)c1ccccc1C(=O)OC1CCCCC1 [Dicyclohexyl phthalate] | 1 | 
65 | C(=NC1CCCCC1)=NC1CCCCC1 [Dicyclohexylcarbodiimide] | 0* | 
66 | CCCCCCCCCC[N+](C)(C)CCCCCCCCCC.[Cl-] [Didecyldimethylammonium chloride] | 1 | 
67 | CCOC(=O)/C=C\C(=O)OCC [Diethyl maleate] | 0* | 
68 | CC1COC(Cn2cncn2)(c2ccc(Oc3ccc(Cl)cc3)cc2Cl)O1 (centres unmarked) [Difenoconazole] | 1 | 
69 | COc1ccc(C(=CC(=O)N2CCOCC2)c2ccc(Cl)cc2)cc1OC [Dimethomorph] | 0 | 

Row | SMILES | MMP assay hitCall [1] | MMP assay hitCall
70 | COC(=O)/C=C\C(=O)OC [Dimethyl maleate] | 0 | 
71 | CCC(C)c1cc([N+](=O)[O-])cc([N+](=O)[O-])c1O (centres unmarked) [Dinoseb] | 1 | 
72 | c1ccc(Nc2ccccc2)cc1 [Diphenylamine] | 1 | 
73 | C=CCOC(=O)/C=C\C(=O)OCC=C [Diprop-2-en-1-yl (2Z)-but-2-enedioate] | 0 | 
74 | CCCCCCCCCCCC[N+](C)(C)C.[Br-] [Dodecyltrimethylammonium bromide] | 1 | 
75 | CCCCCCCCCCCC[N+](C)(C)C.[Cl-] [Dodecyltrimethylammonium chloride] | 0* | 
76 | CN1CCN(c2ccccc2/C=C2\SCCN(c3ccc(Cl)c(Cl)c3)C2=O)CC1 [Elzasonan] | 0 | 
77 | CCOC1Oc2ccc(OS(C)(=O)=O)cc2C1(C)C (centres unmarked) [Ethofumesate] | 0 | 
78 | CCOc1cc(C(C)(C)C)ccc1C1COC(c2c(F)cccc2F)=N1 (centres unmarked) [Etoxazole] | 1 | 
79 | C=CCc1ccc(O)c(OC)c1 [Eugenol] | 0* | 
80 | C=CCc1ccc(OC(=O)Cc2ccccc2)c(OC)c1 [Eugenyl phenylacetate] | 0 | 
81 | CSC1=N[C@@](C)(c2ccccc2)C(=O)N1Nc1ccccc1 [Fenamidone] | 1 | 
82 | CC(C)(C)c1ccc(CCOc2ncnc3ccccc23)cc1 [Fenazaquin] | 0* | 
83 | COP(=S)(OC)Oc1ccc([N+](=O)[O-])c(C)c1 [Fenitrothion] | 0* | 
84 | CCOC(=O)NCCOc1ccc(Oc2ccccc2)cc1 [Fenoxycarb] | 0* | 
85 | N#Cc1nn(-c2c(Cl)cc(C(F)(F)F)cc2Cl)c(N)c1[S+]([O-])C(F)(F)F (centres unmarked) [Fipronil] | 1 | 
86 | CC(C)N(C(=O)COc1nnc(C(F)(F)F)s1)c1ccc(F)cc1 [Flufenacet] | 0 | 
87 | C#CCN1C(=O)COc2cc(F)c(N3C(=O)C4=C(CCCC4)C3=O)cc21 [Flumioxazin] | 0 | 
88 | O=C(Nc1cccc(C(F)(F)F)c1)c1cc(Br)cc(Br)c1O [Fluorosalan] | 1 | 
89 | CO/N=C(/C1=NOCCO1)c1ccccc1Oc1ncnc(Oc2ccccc2Cl)c1F [Fluoxastrobin] | 1 | 
90 | C[Si](Cn1cncn1)(c1ccc(F)cc1)c1ccc(F)cc1 [Flusilazole] | 1 | 
91 | CC(C)Oc1cccc(NC(=O)c2ccccc2C(F)(F)F)c1 [Flutolanil] | 1 | 
92 | O=C(Nc1ccccc1)Nc1ccnc(Cl)c1 [Forchlorfenuron] | 1 | 
